Assay type in all cases: cell-based, Human
In one experiment the test system is ACHN (kidney cancer). Description: Test for inhibition of tumor cell growth (SRB), ACHN. Conditions: 48 hours, SRB staining; for GI50: Homo sapiens, ACHN. On the procedure: (§1) Human tumor cell lines, PC-3 (prostate cancer, ATCC, USA), MBA-MB-231 (breast cancer, ATCC, USA), ACHN (kidney cancer, ATCC, USA), and NUGC-3 (gastric cancer, ATCC, USA) were cultured in RPMI 1640 media containing 10% fetal bovine serum (FBS).
(§2) In order to measure anticancer activity, a suitable concentration of cells in RPMI 1640 media containing 5% fetal bovine serum (about 5×10^4 cells/□) was aliquotted in 96-well plates, and cultured in 5% CO2 at 37° C. On day one after aliquoting the cells, before the cells were treated with the compounds, in order to determine their concentration, 50[…] of 50% trichloroacetic acid was added to each well of time zero (T0) plate, and cells were fixed to determine zero point. The cells treated with the compounds were fixed on each well having 50[…] of 50% trichloroacetic acid after 48 hours. The final concentrations of the test compounds were 0.01, 0.03, 0.1, 0.3, and 1[…]/□. The fixed plate was washed with water and dried, and then 100[…] of 0.4% sulphorhodamine B (SRB) dissolved in 0.1% acetic acid was added to the each well to stain the cells. The plate was allowed to stand for 30 minutes, and then washed with 0.1% acetic acid. Then, the plate was dried at room temperature, and treated with 10 mM tris base (pH 10.5) to dissolve staining reagent. An absorbance measured at 540 nm was calculated as a percentage of the control group, and then the concentration of the compound that inhibited tumor cell growth (GI50(□/□)) by 50% was determined.
On the technique in general: In SRB staining, fixed cells bind dye roughly in proportion to their protein.

Experiment [1] deals with MBA-MB-231 (breast cancer). Description: Test for inhibition of tumor cell growth (SRB), MBA-MB-231. Conditions: 48 hours, SRB staining; for GI50: Homo sapiens. As for the experimental part: as §1, §2
The next experiment concerns PC-3 (prostate cancer). Kind of experiment: Test for inhibition of tumor cell growth (SRB), PC-3. Conditions: 48 hours, SRB staining; for GI50: Homo sapiens, read-out: GI50 PC-3 (prostate ancer). As for the experimental part:
as §1, §2

In a further experiment the test system is NUGC-3 (gastric cancer). Kind of experiment: Test for inhibition of tumor cell growth (SRB), NUGC-3. As to conditions: 48 hours, SRB staining; for GI50: Homo sapiens, NUGC-3. On the procedure: as §1, §2

As usually defined, the GI50 is the concentration giving 50% growth inhibition.

As for “1-(4-fluorobenzyl)-1-methyl-4-(octane-1-sulfonyppiperazin-1-ium bromide [Example 63]”, the “GI50 ACHN (kidney cancer)” value in the experiment with ACHN (kidney cancer) is more than 10 µg/mL. Also, the “GI50 MBA-MB-231 (breast cancer)” value in experiment [1] is more than 10 µg/mL. In addition, the “GI50 PC-3 (prostate ancer)” value in the experiment on PC-3 (prostate cancer) is more than 10 µg/mL. Also, the “GI50 NUGC-3 (gastric cancer)” value in the experiment with NUGC-3 (gastric cancer) is more than 10 µg/mL.
For “1-allyl-1-methyl-4-(tetradecane-1-sulfonyppiperazin-1-ium bromide [Example 69]”, the “GI50 ACHN (kidney cancer)” value in the experiment on ACHN (kidney cancer) came to 0.59 µg/mL. The “GI50 MBA-MB-231 (breast cancer)” value in experiment [1] came to 1.16 µg/mL. Besides, in the experiment on PC-3 (prostate cancer), the “GI50 PC-3 (prostate ancer)” value stood at 0.68 µg/mL. For the same compound, the “GI50 NUGC-3 (gastric cancer)” value in the experiment with NUGC-3 (gastric cancer) came to 0.59 µg/mL.
Regarding “1-ethyl-1-(3-nitrobenzyl)-4-tetradecanoylpiperazin-1-him bromide [Example 56]”, the “GI50 ACHN (kidney cancer)” value in the experiment on ACHN (kidney cancer) was 1.93 µg/mL. For the same compound, the “GI50 MBA-MB-231 (breast cancer)” value in experiment [1] worked out at 1.13 µg/mL. Moreover, the “GI50 PC-3 (prostate ancer)” value in the experiment on PC-3 (prostate cancer) is 0.52 µg/mL. Moreover, the “GI50 NUGC-3 (gastric cancer)” value in the experiment on NUGC-3 (gastric cancer) stood at 1.22 µg/mL.
As to `CCCCCCCCCCCCCCCCCCCCCC(=O)N1CC[N+](C)(C)CC1` [Example 1, 4-docosanoyl-1,1-dimethylpiperazin-1-ium iodide], the concentration for 50% growth inhibition (GI50) with ACHN (kidney cancer) was determined as 2.39 µg/mL; in experiment [1], 3.51 µg/mL; in the experiment on PC-3 (prostate cancer) it was 0.99 µg/mL; in the experiment with NUGC-3 (gastric cancer) it was 1.15 µg/mL.
The corresponding values for `CCCCCCCC(=O)N1CC[N+](C)(C)CC1.[I-]` [Example 2, 1,1-dimethyl-4-octanoyl-piperazin-1-ium iodide] are more than 10 µg/mL, more than 10 µg/mL, more than 10 µg/mL and more than 10 µg/mL.
As to `CCCCCCCC(=O)N1CC[N+](C)(Cc2ccccc2)CC1.[Br-]` [Example 3, 1-benzyl-1-methyl-4-octanoyl-piperazin-1-ium bromide], the GI50 (in the experiment on ACHN (kidney cancer); in experiment [1]; in the experiment on PC-3 (prostate cancer); with NUGC-3 (gastric cancer)) was more than 10 µg/mL each time.
With `C=CC[N+]1(C)CCN(C(=O)CCCCCCC)CC1.[Br-]` [Example 4, 1-allyl-1-methyl-4-octanoyl-piperazin-1-ium bromide], the 50% growth inhibitory concentration (GI50) (in the experiment with ACHN (kidney cancer); in experiment [1]; in the experiment with PC-3 (prostate cancer); in the experiment on NUGC-3 (gastric cancer)) was more than 10 µg/mL each time.
On to `CCCCCCCC(=O)N1CC[N+](C)(Cc2ccc(OC)cc2)CC1.[Cl-]` [Example 5, 1-(4-methoxy-benzyl)-1-methyl-4-octanoyl-piperazin-1-ium chloride], for which the concentration for 50% growth inhibition (GI50) (in the experiment on ACHN (kidney cancer); in experiment [1]; in the experiment on PC-3 (prostate cancer); in the experiment on NUGC-3 (gastric cancer)) was more than 10 µg/mL throughout.
On to `CCCCCCCC(=O)N1CC[N+](C)(CC)CC1.[I-]` [Example 6, 1-ethyl-1-methyl-4-octanoyl-piperazin-1-ium iodide], for which the concentration for 50% growth inhibition (GI50) (in the experiment on ACHN (kidney cancer); in experiment [1]; in the experiment with PC-3 (prostate cancer); in the experiment with NUGC-3 (gastric cancer)) was more than 10 µg/mL throughout.
For the compound `CCCCCCCC(=O)N1CC[N+](CC)(Cc2ccccc2)CC1.[Br-]` [Example 7, 1-benzyl-1-ethyl-4-octanoyl-piperazin-1-ium bromide], the concentration for 50% growth inhibition (GI50) (in the experiment with ACHN (kidney cancer); in experiment [1]; in the experiment with PC-3 (prostate cancer); in the experiment on NUGC-3 (gastric cancer)) was more than 10 µg/mL throughout.
Take `CCCCCCCCCC(=O)N1CC[N+](C)(Cc2ccccc2)CC1` [Example 8, 1-benzyl-4-decanoyl-1-methyl-piperazin-1-ium bromide]: the concentration for 50% growth inhibition (GI50) is more than 10 µg/mL in the experiment with ACHN (kidney cancer), more than 10 µg/mL in experiment [1], 0.8 µg/mL with PC-3 (prostate cancer) and more than 10 µg/mL in the experiment on NUGC-3 (gastric cancer).
With `C=CC[N+]1(C)CCN(C(=O)CCCCCCCCC)CC1` [Example 9, 1-allyl-4-decanoyl-1-methyl-piperazin-1-ium bromide], the GI50 in the experiment with ACHN (kidney cancer) was more than 10 µg/mL; in experiment [1], more than 10 µg/mL; in the experiment with PC-3 (prostate cancer), 1.81 µg/mL; in the experiment with NUGC-3 (gastric cancer), more than 10 µg/mL.
On to `CCCCCCCCCC(=O)N1CC[N+](CC)(Cc2ccccc2)CC1` [Example 10, 1-benzyl-4-decanoyl-1-ethyl-piperazin-1-ium bromide], for which the GI50 (in the experiment with ACHN (kidney cancer); in experiment [1]; in the experiment with PC-3 (prostate cancer); with NUGC-3 (gastric cancer)) was more than 10 µg/mL throughout.
Turning to `C=CC[N+]1(CC)CCN(C(=O)CCCCCCCCC)CC1` [Example 11, 1-allyl-4-decanoyl-1-ethylpiperazin-1-ium bromide], the 50% growth inhibitory concentration (GI50) in the experiment on ACHN (kidney cancer) is more than 10 µg/mL; in experiment [1], more than 10 µg/mL; in the experiment with PC-3 (prostate cancer) it was 3.07 µg/mL; in the experiment on NUGC-3 (gastric cancer), more than 10 µg/mL.
In the case of `CCCCCCCCCC(=O)N1CC[N+](C)(CC)CC1` [Example 12, 4-decanoyl-1-ethyl-1-methylpiperazin-1-ium iodide], the GI50 (in the experiment with ACHN (kidney cancer); in experiment [1]; in the experiment on PC-3 (prostate cancer); in the experiment with NUGC-3 (gastric cancer)) was more than 10 µg/mL each time.
`C=CC[N+]1(C)CCN(C(=O)CCCCCCCCCCCCC)CC1` [Example 13, 1-allyl-1-methyl-4-tetradecanoyl-piperazin-1-ium bromide]: the 50% growth inhibitory concentration (GI50) in the experiment on ACHN (kidney cancer) was more than 10 µg/mL; in experiment [1] it was 1.29 µg/mL; with PC-3 (prostate cancer) it was 0.3 µg/mL; in the experiment with NUGC-3 (gastric cancer) it was 0.5 µg/mL.
With `CCCCCCCCCCCCCC(=O)N1CC[N+](C)(CC)CC1` [Example 14, 1-ethyl-1-methyl-4-tetradecanoyl-piperazin-1-ium iodide], the concentration for 50% growth inhibition (GI50) in the experiment with ACHN (kidney cancer) was found to be 2.37 µg/mL; in experiment [1], 2.44 µg/mL; in the experiment on PC-3 (prostate cancer) it was 0.57 µg/mL; in the experiment on NUGC-3 (gastric cancer), 0.54 µg/mL.
For `CCCCCCCCCCCCCC(=O)N1CC[N+](CC)(Cc2ccccc2)CC1` [Example 15, 1-benzyl-1-ethyl-4-tetradecanoyl-piperazin-1-ium bromide], the GI50 was more than 10 µg/mL in the experiment with ACHN (kidney cancer), more than 10 µg/mL in experiment [1], 1.42 µg/mL in the experiment on PC-3 (prostate cancer) and 2.07 µg/mL in the experiment on NUGC-3 (gastric cancer).
For `C=CC[N+]1(CC)CCN(C(=O)CCCCCCCCCCCCC)CC1` [Example 16, 1-allyl-1-ethyl-4-tetradecanoyl-piperazin-1-ium bromide], the GI50 was 4.26 µg/mL in the experiment on ACHN (kidney cancer), 2.49 µg/mL in experiment [1], 0.41 µg/mL with PC-3 (prostate cancer) and 0.76 µg/mL in the experiment with NUGC-3 (gastric cancer).
Turning to `C=CC[N+]1(C)CCN(C(=O)CCCCCCCCCCCCCCC)CC1.[Br-]` [Example 17, 1-allyl-4-hexadecanoyl-1-methyl-piperazin-1-ium bromide], the concentration for 50% growth inhibition (GI50) in the experiment with ACHN (kidney cancer) was 1.14 µg/mL; in experiment [1] it was 1.28 µg/mL; in the experiment with PC-3 (prostate cancer), 0.46 µg/mL; in the experiment on NUGC-3 (gastric cancer), 0.47 µg/mL.
On to `CCCCCCCCCCCCCCCC(=O)N1CC[N+](C)(Cc2ccc(OC)cc2)CC1.[Cl-]` [Example 18, 4-hexadecanoyl-1-(4-methoxy-benzyl)-1-methyl-piperazin-1-ium chloride], for which the GI50 worked out at 1.31 µg/mL in the experiment with ACHN (kidney cancer), 0.92 µg/mL in experiment [1], 0.49 µg/mL in the experiment with PC-3 (prostate cancer) and 1.16 µg/mL with NUGC-3 (gastric cancer).
In the case of `C=CCCC[N+]1(C)CCN(C(=O)CCCCCCCCCCCCCCC)CC1.[Br-]` [Example 19, 4-hexadecanoyl-1-methyl-1-pent-4-enyl-piperazin-1-ium bromide], the concentration for 50% growth inhibition (GI50) in the experiment on ACHN (kidney cancer) was found to be 1.69 µg/mL; in experiment [1], 1.7 µg/mL; in the experiment on PC-3 (prostate cancer), 0.55 µg/mL; with NUGC-3 (gastric cancer) it was 0.63 µg/mL.
With `C=CCC[N+]1(C)CCN(C(=O)CCCCCCCCCCCCCCC)CC1.[Br-]` [Example 20, 1-but-3-enyl-4-hexadecanoyl-1-methyl-piperazin-1-ium bromide], the concentration for 50% growth inhibition (GI50) in the experiment with ACHN (kidney cancer) was found to be 1.58 µg/mL; in experiment [1], 1.52 µg/mL; with PC-3 (prostate cancer), 0.67 µg/mL; with NUGC-3 (gastric cancer), 0.72 µg/mL.

The values above are taken from patent publication US20100144708A1, “HETEROCYCLIC COMPOUNDS CONTAINING NITROGEN ATOMS OR PHARMACEUTICALLY ACCEPTABLE SALTS THEREOF, PROCESS FOR THE PREPARATION THEREOF AND PHARMACEUTICAL COMPOSITION COMPRISING THE SAME FOR TREATMENT OF CANCER” (Korea Research Instititute of Bioscience and Biotechnology, priority 2006, published 2010).
